In US20100331357A1, “PHARMACEUTICAL COMPOSITION” (TAKEDA PHARMACEUTICAL COMPANY LIMITED, priority 2008, published 2010):

Tests used:
Type in all cases: physicochemical
[1] = Saturation solubility, shaken 18 hours at 25° C., filtered, HPLC; conditions: thermodynamic from solid, 40 mM Citric acid
Protocol: To each of the various solutions shown in Table 5, compound A1 hydrochloride was added in an amount exceeding the saturation concentration, and the mixture was shaken for 18 hours at 25° C.

[2] = Saturation solubility, shaken 18 hours at 5° C., filtered, HPLC; conditions: thermodynamic from solid, 40 mM Citric acid, NaOH, as free form
Protocol: To each of the various solutions shown in Table 6, compound A1 hydrochloride was added in an amount exceeding the saturation concentration, and the mixture was shaken for 18 hours at 5° C.

[3] = Solubility by eye observation with stepwise addition of solution; conditions: thermodynamic from solid
Protocol: (§1) Each of the solutions (0.1 mL) shown in Table 1 was added to compound A1 hydrochloride (about 2 mg), and solubility was confirmed with eye observation. When insoluble materials were recognized, the solution (0.1 mL) was further added, and solubility was confirmed by eye observation in the same manner. When insoluble materials were still recognized, the solution was thereafter added in the amounts of 0.05 mL, 0.15 mL, 0.4 mL, 0.4 mL, 0.4 mL and 0.4 mL, respectively in this order, and solubility was confirmed by eye observation. The concentration of the compound A1 hydrochloride determined from the total amount of the solution added up to the time point at which insoluble materials were not recognized, was taken as the solubility.
as §1, with “Table 2” for “Table 1”
as §1, with “Table 3” for “Table 1”
as §1, with “Table 4” for “Table 1”

SMILES: CCS(=O)(=O)c1cccc(-c2cc(C(=O)NC3CCN(C)CC3)c(C)c3[nH]c4ncc(C)cc4c23)c1.Cl [compound A1 hydrochloride, 5-(3-(ethylsulfonyl)phenyl)-3,8-dimethyl-N-(1-methylpiperidin-4-yl)-9H-pyrido[2,3-b]indole-7-carboxamide hydrochloride]
- solubility at 18 h ([1]; aqueous with cosolvent or surfactant or cyclodextrin, 5 w/v % Sulfobutyl ether-β-cyclodextrin sodium salt (Captisol, research grade), HCl, pH 2.5, as free form): 29200 µg/mL
- solubility at 18 h ([1]; aqueous with cosolvent or surfactant or cyclodextrin, 5 w/v % Sulfobutyl ether-β-cyclodextrin sodium salt (Captisol, research grade), NaOH, pH 4, as free form): 24500 µg/mL
- solubility at 18 h ([1]; aqueous with cosolvent or surfactant or cyclodextrin, 5 w/v % Sulfobutyl ether-β-cyclodextrin sodium salt (Captisol, research grade), NaOH, pH 5, as free form): 22900 µg/mL
- solubility at 18 h ([1]; citric acid solution in water for injection, aqueous buffer, water for injection, HCl, pH 2.5, as compound A1 (free form)): 8000 µg/mL
- solubility at 18 h ([1]; citric acid solution in water for injection, aqueous buffer, water for injection, NaOH, pH 4, as free form): 300 µg/mL
- solubility at 18 h ([1]; citric acid solution in water for injection, aqueous buffer, water for injection, NaOH, pH 5, as free form): 100 µg/mL
- solubility at 18 h ([2]; citric acid solution in water for injection, pH 4, aqueous buffer, water for injection): 100 µg/mL
- solubility at 18 h ([2]; pH 4, aqueous with cosolvent or surfactant or cyclodextrin, 2.5 w/v % Sulfobutyl ether-β-cyclodextrin sodium salt): 13000 µg/mL
- solubility at 18 h ([2]; pH 4, aqueous with cosolvent or surfactant or cyclodextrin, 5 w/v % Sulfobutyl ether-β-cyclodextrin sodium salt): 20900 µg/mL
- solubility at 18 h ([2]; pH 4, aqueous with cosolvent or surfactant or cyclodextrin, 7.5 w/v % Sulfobutyl ether-β-cyclodextrin sodium salt): 27600 µg/mL
- solubility at 18 h ([2]; pH 4, aqueous with cosolvent or surfactant or cyclodextrin, 10 w/v % Sulfobutyl ether-β-cyclodextrin sodium salt): 32800 µg/mL
- solubility at 18 h ([2]; pH 4, aqueous with cosolvent or surfactant or cyclodextrin, 12 w/v % Sulfobutyl ether-β-cyclodextrin sodium salt): 35400 µg/mL
- solubility at 18 h ([2]; pH 4, aqueous with cosolvent or surfactant or cyclodextrin, 20 w/v % Sulfobutyl ether-β-cyclodextrin sodium salt): 43600 µg/mL
- solubility at 18 h ([2]; pH 4, aqueous with cosolvent or surfactant or cyclodextrin, 30 w/v % Sulfobutyl ether-β-cyclodextrin sodium salt): 49900 µg/mL
- solubility ([3]; 5 w/v % D-mannitol in water for injection, saline or isotonic): ~1100 µg/mL
- solubility ([3]; 5 w/v % D-sorbitol in water for injection, saline or isotonic): ~1300 µg/mL
- solubility ([3]; 5 w/v % glucose in water for injection, saline or isotonic): ~1300 µg/mL
- solubility ([3]; 10 w/v % Dextran 40 in water for injection, aqueous with cosolvent or surfactant or cyclodextrin): < 1300 µg/mL
- solubility ([3]; 10 w/v % Polysorbate 20 in water for injection, aqueous with cosolvent or surfactant or cyclodextrin): ~1800 µg/mL
- solubility ([3]; 10 w/v % Polysorbate 80 in water for injection, aqueous with cosolvent or surfactant or cyclodextrin): ~2200 µg/mL
- solubility ([3]; 10 w/v % maltose in water for injection, saline or isotonic): ~1400 µg/mL
- solubility ([3]; 10 w/v % sucrose in water for injection, saline or isotonic): ~1200 µg/mL
- solubility ([3]; 30 w/v % maltosyl-β-cyclodextrin in water for injection, aqueous with cosolvent or surfactant or cyclodextrin): ~10800 µg/mL
- solubility ([3]; aqueous with cosolvent or surfactant or cyclodextrin, 30 w/v % 2-Hydroxypropyl-β-cyclodextrin in water for injection): ~10400 µg/mL
- solubility ([3]; aqueous with cosolvent or surfactant or cyclodextrin, 30 w/v % Sulfobutyl ether-β-cyclodextrin sodium salt (Captisol, clinical grade) in water for injection): ~9200 µg/mL
- solubility ([3]; citric acid buffer solution, pH 2, aqueous buffer, 100 mM Citric acid buffer solution pH 2): ~2100 µg/mL
- solubility ([3]; citric acid buffer solution, pH 3, aqueous buffer, 100 mM Citric acid buffer solution pH 3): ~1000 µg/mL
- solubility ([3]; citric acid buffer solution, pH 4, aqueous buffer, 100 mM Citric acid buffer solution pH 4): < 1300 µg/mL
- solubility ([3]; citric acid buffer solution, pH 5, aqueous buffer, 100 mM Citric acid buffer solution pH 5): < 1300 µg/mL
- solubility ([3]; citric acid buffer solution, pH 7, aqueous buffer, 100 mM Citric acid buffer solution pH 7): < 1200 µg/mL
- solubility ([3]; citric acid buffer solution, pH 9, aqueous buffer, 100 mM Citric acid buffer solution pH 9): < 1200 µg/mL
- solubility ([3]; citric acid buffer solutions, aqueous buffer, citric acid buffer solutions of Table 1): < 8000 µg/mL
- solubility ([3]; cyclodextrin derivative solutions, aqueous with cosolvent or surfactant or cyclodextrin, all cyclodextrin derivative solutions shown in Table 4): ≥ 8000 µg/mL
- solubility ([3]; ethanol, organic solvent or mixture, 100 w/v % Ethanol): < 1200 µg/mL
- solubility ([3]; polyethylene glycol 300, organic solvent or mixture, 100 w/v % Polyethylene glycol 300): < 1100 µg/mL
- solubility ([3]; polyethylene glycol 400, organic solvent or mixture, 100 w/v % Polyethylene glycol 400): < 1300 µg/mL
- solubility ([3]; solutions of solubilizers, aqueous with cosolvent or surfactant or cyclodextrin, solutions of solubilizers in Table 3): < 8000 µg/mL
- solubility ([3]; solutions of sugars, saline or isotonic, solutions of sugars in Table 2): < 8000 µg/mL
- solubility ([3]; soybean oil, oil or lipid, 100 w/v % Soybean oil): < 1200 µg/mL
- solubility ([3]; water for injection, water): < 1200 µg/mL
